{
  "source": "patent US20220370481A1",
  "about": "“VENETOCLAX DOSING REGIMENS FOR USE IN TREATING MYELODYSPLASTIC SYNDROMES IN COMBINATION WITH A CYP3A INHIBITOR AND AZACITIDINE” (priority 2021, published 2022)",
  "tested_on": "adults with previously untreated higher-risk MDS",
  "settings": "with azacitidine",
  "method": "A multicenter, non-randomized Phase 1b study in adults with previously untreated higher-risk MDS, defined as IPSS risk categories of Int-2 or High (IPSS overall score ≥1.5) was initiated. The original protocol randomized patients into 1 of 3 treatment groups: venetoclax 800 mg + azacitidine, venetoclax 400 mg + azacitidine, and azacitidine monotherapy. Under the original protocol, venetoclax was administered on Days 1 through 28 of each 28-day-cycle and dosing was initiated according to a ramp-up dosing schedule in Cycle 1.\nSubjects 18 years or older diagnosed with treatment-naïve IPSS intermediate-2 or high-risk myelodysplastic syndromes with ECOG ≤2 were enrolled. For this study, inclusion criteria included the following: • 1. Subject must be ≥18 years of age. • 2. Subject must have documented diagnosis of previously untreated de novo MDS with: • a. International Prognostic Scoring System (IPSS) risk categories Intermediate-2 or High (i.e., minimum IPSS score of 1.5) OR Revised IPSS (IPSS-R) categories Intermediate, High or Very High (score of >3); and • b. Presence of <20% bone marrow blasts per bone marrow biopsy/aspirate. • 3. Subject must have an Eastern Cooperative Oncology Group (ECOG) performance score of ≤2.\nAzacitidine 75 mg/m^2 (intravenous or subcutaneous daily) was administered for 7 days and venetoclax was administered at 400 mg for 14 days in each 28 day cycle. In both cohorts, dose modification during Cycle 1 was not recommended. Dose modifications in subsequent cycles were prescribed for adverse events. […] In subsequent cycles, venetoclax duration could be shortened to 9 days of each cycle. In Safety Expansion Cohort 2 (SE2), dose modification guidelines recommended stepwise reductions, first in azacitidine dose (first to 50 mg/m^2, then 36 mg/m^2) and subsequently in venetoclax duration to 7 days of each cycle (venetoclax 400 mg) as shown in Table 4. The impact of each dose modification strategy on safety and efficacy in SE1 versus SE2 was compared. Worsening of treatment-emergent adverse events grades from baseline was analyzed by cycle. Responses were evaluated using IWG 2006 criteria. Analyses included all subject who received ≥1 dose of study drug.\nAfter a previous interruption of treatment, delay starting the next cycle, onset of adverse events associated with hematological toxicity, significant reduction of neutrophils, or significant reduction of platelets, a treatment dose reduction may be indicated. […] Venetoclax and azacitidine were resumed on the same day after any delays or interruptions in treatment.",
  "note": "Like-named read-outs stand apart in the source and are kept apart here.",
  "data": [
    {"molecule": "CC1(C)CCC(CN2CCN(c3ccc(C(=O)NS(=O)(=O)c4ccc(NCC5CCOCC5)c([N+](=O)[O-])c4)c(Oc4cnc5[nH]ccc5c4)c3)CC2)=C(c2ccc(Cl)cc2)C1", "note": "[Venetoclax, 4-(4-{[2-(4-chlorophenyl)-4,4-dimethylcyclohex-1-en-1-yl]methyl}piperazin-1-yl)-N-({3nitro-4-[(tetrahydro-2H-pyran-4-ylmethyl)amino]phenyl}sulfonyl)-2-(1H-pyrrolo[2,3-b]pyridin5-yloxy)benzamide]", "values": [
      {"measurement": "Venetoclax dose delay by end of each cycle", "setting": "Cycle 2, SE1, n = 22", "result": "14 (63) n (%)"},
      {"measurement": "Venetoclax dose delay by end of each cycle, Median # days (range)", "setting": "Cycle 2, SE1, n = 22", "result": "7.5 (1-21) days"},
      {"measurement": "Venetoclax dose delay by end of each cycle", "setting": "Cycle 2, SE2, n = 21", "result": "13 (62) n (%)"},
      {"measurement": "Venetoclax dose delay by end of each cycle, Median # days (range)", "setting": "Cycle 2, SE2, n = 21", "result": "8 (5-21) days"},
      {"measurement": "Venetoclax dose delay by end of each cycle", "setting": "Cycle 3, SE1, n = 22", "result": "12 (55) n (%)"},
      {"measurement": "Venetoclax dose delay by end of each cycle, Median # days (range)", "setting": "Cycle 3, SE1, n = 22", "result": "14 (3-28) days"},
      {"measurement": "Venetoclax dose delay by end of each cycle", "setting": "Cycle 3, SE2, n = 21", "result": "10 (48) n (%)"},
      {"measurement": "Venetoclax dose delay by end of each cycle, Median # days (range)", "setting": "Cycle 3, SE2, n = 21", "result": "8.5 (1-48) days"},
      {"measurement": "Venetoclax dose delay by end of each cycle", "setting": "Cycle 4, SE1, n = 22", "result": "8 (36) n (%)"},
      {"measurement": "Venetoclax dose delay by end of each cycle, Median # days (range)", "setting": "Cycle 4, SE1, n = 22", "result": "17 (1-54) days"},
      {"measurement": "Venetoclax dose delay by end of each cycle", "setting": "Cycle 4, SE2, n = 21", "result": "6 (28) n (%)"},
      {"measurement": "Venetoclax dose delay by end of each cycle, Median # days (range)", "setting": "Cycle 4, SE2, n = 21", "result": "9 (6-43) days"},
      {"measurement": "Venetoclax dose delay by end of each cycle", "setting": "Cycle 5, SE1, n = 22", "result": "7 (32) n (%)"},
      {"measurement": "Venetoclax dose delay by end of each cycle, Median # days (range)", "setting": "Cycle 5, SE1, n = 22", "result": "14 (3-28) days"},
      {"measurement": "Venetoclax dose delay by end of each cycle", "setting": "Cycle 5, SE2, n = 21", "result": "9 (43) n (%)"},
      {"measurement": "Venetoclax dose delay by end of each cycle, Median # days (range)", "setting": "Cycle 5, SE2, n = 21", "result": "14 (1-97) days"},
      {"measurement": "Venetoclax dose delay by end of each cycle", "setting": "Cycle 6, SE1, n = 22", "result": "7 (32) n (%)"},
      {"measurement": "Venetoclax dose delay by end of each cycle, Median # days (range)", "setting": "Cycle 6, SE1, n = 22", "result": "7 (1-21) days"},
      {"measurement": "Venetoclax dose delay by end of each cycle", "setting": "Cycle 6, SE2, n = 21", "result": "5 (24) n (%)"},
      {"measurement": "Venetoclax dose delay by end of each cycle, Median # days (range)", "setting": "Cycle 6, SE2, n = 21", "result": "14 (6-91) days"},
      {"measurement": "# of reductions in Venetoclax duration (due to hematologic toxicity)", "setting": "SE1, n = 22", "result": "3 (14)"},
      {"measurement": "Patients with ≥1 Ven dose amount reduction", "setting": "SE1, n = 22", "result": "10 (45) n (%)"},
      {"measurement": "Venetoclax: Median days to duration reduction", "setting": "SE1, n = 22", "result": 52, "unit": "days"},
      {"measurement": "# of reductions in Venetoclax duration (due to hematologic toxicity)", "setting": "SE2, n = 21", "result": 0},
      {"measurement": "Patients with ≥1 Ven dose amount reduction", "setting": "SE2, n = 21", "result": "10 (48) n (%)"}
    ]}
  ]
}
